The text below walks through data of US9884849B2, “Fluorinated benzofuranyl-pyrimidine derivatives containing a sulfoximine group” (Bayer Pharma Aktiengesellschaft, priority 2014, dated 2018).

One experiment deals with HeLa cells. Kind of experiment: Proliferation assay HeLa (Method 3). The following applies: 4 days, crystal violet, read-out: Inhibition of HeLa cell proliferation IC50. It counts as cell-based, human. Here is the method: Cultivated tumour cells (HeLa, human cervical tumour cells, ATCC CCL-2; NCI-H460, human non-small cell lung carcinoma cells, ATCC HTB-177; A2780, human ovarian carcinoma cells, ECACC #93112519; DU 145, hormone-independent human prostate carcinoma cells, ATCC HTB-81; HeLa-MaTu-ADR, multidrug-resistant human cervical carcinoma cells, EPO-GmbH Berlin; Caco-2, human colorectal carcinoma cells, ATCC HTB-37; B16F10, mouse melanoma cells, ATCC CRL-6475) were plated at a density of 5,000 cells/well (DU145, HeLa-MaTu-ADR), 3,000 cells/well (NCI-H460, HeLa), 2,500 cells/well (A2780), 1,500 cells/well (Caco-2), or 1,000 cells/well (B16F10) in a 96-well multititer plate in 200 μL of their respective growth medium supplemented 10% fetal calf serum. After 24 hours, the cells of one plate (zero-point plate) were stained with crystal violet (see below), while the medium of the other plates was replaced by fresh culture medium (200 μl), to which the test substances were added in various concentrations (0 μM, as well as in the range of 0.001-10 μM; the final concentration of the solvent dimethyl sulfoxide was 0.5%). The cells were incubated for 4 days in the presence of test substances. Cell proliferation was determined by staining the cells with crystal violet: the cells were fixed by adding 20 μl/measuring point of an 11% glutaric aldehyde solution for 15 minutes at room temperature. After three washing cycles of the fixed cells with water, the plates were dried at room temperature. The cells were stained by adding 100 μl/measuring point of a 0.1% crystal violet solution (pH 3.0). After three washing cycles of the stained cells with water, the plates were dried at room temperature. The dye was dissolved by adding 100 μl/measuring point of a 10% acetic acid solution. The extinction was determined by photometry at a wavelength of 595 nm. The change of cell number, in percent, was calculated by normalization of the measured values to the extinction values of the zero-point plate (=0%) and the extinction of the untreated (0 μm) cells (=100%). The IC50 values (inhibitory concentration at 50% of maximal effect) were determined by means of a 4 parameter fit.

A further experiment addresses T1, CDK9/CycT1 (Homo sapiens, UniProt P50750).
T1 construct: Recombinant full-length His-tagged human CDK9 and CycT1; His; purchased Invitrogen PV4131; host or cells: insect cells
As to the kind of experiment: CDK9/CycT1 high ATP kinase assay (Method 1b, TR-FRET). It is filed as biochemical. The note with it: 2 mM ATP; for Selectivity high ATP CDK9 over high ATP CDK2: IC50 (high ATP CDK2)/IC50 (high ATP CDK9): Methods 1b. and 2b. On the procedure:
1b. CDK9/CycT1 High ATP Kinase Assay
CDK9/CycT1-Inhibitory Activity of Compounds of the Present Invention at a High ATP Concentration after Preincubation of Enzyme and Test Compounds was Quantified Employing the CDK9/CycT1 TR-FRET Assay as Described in the Following Paragraphs.
Recombinant full-length His-tagged human CDK9 and CycT1, expressed in insect cells and purified by Ni-NTA affinity chromatography, were purchase from Invitrogen (Cat. No PV4131). As substrate for the kinase reaction biotinylated peptide biotin-Ttds-YISPLKSPYKISEG (C-terminus in amid form) was used which can be purchased e.g. form the company JERINI peptide technologies (Berlin, Germany). For the assay 50 nl of a 100 fold concentrated solution of the test compound in DMSO was pipetted into a black low volume 384 well microtiter plate (Greiner Bio-One, Frickenhausen, Germany), 2 μl of a solution of CDK9/CycT1 in aqueous assay buffer [50 mM Tris/HCl pH 8.0, 10 mM MgCl2, 1.0 mM dithiothreitol, 0.1 mM sodium ortho-vanadate, 0.01% (v/v) Nonidet-P40 (Sigma)] were added and the mixture was incubated for 15 min at 22° C. to allow pre-binding of the test compounds to the enzyme before the start of the kinase reaction. Then the kinase reaction was started by the addition of 3 μl of a solution of adenosine-tri-phosphate (ATP, 3.3 mM=>final conc. in the 5 μl assay volume is 2 mM) and substrate (1.67 μM=>final conc. in the 5 μl assay volume is 1 μM) in assay buffer and the resulting mixture was incubated for a reaction time of 25 min at 22° C. The concentration of CDK9/CycT1 was adjusted depending of the activity of the enzyme lot and was chosen appropriate to have the assay in the linear range, typical concentrations were in the range of 0.5 μg/mL. The reaction was stopped by the addition of 5 μl of a solution of TR-FRET detection reagents (0.2 μM streptavidine-XL665 [Cisbio Bioassays, Codolet, France] and 1 nM anti-RB(pSer807/pSer811)-antibody from BD Pharmingen [#558389] and 1.2 nM LANCE EU-W1024 labeled anti-mouse IgG antibody [Perkin-Elmer, product no. AD0077]) in an aqueous EDTA-solution (100 mM EDTA, 0.2% (w/v) bovine serum albumin in 100 mM HEPES/NaOH pH 7.0).
The resulting mixture was incubated 1 h at 22° C. to allow the formation of complex between the phosphorylated biotinylated peptide and the detection reagents. Subsequently the amount of phosphorylated substrate was evaluated by measurement of the resonance energy transfer from the Eu-chelate to the streptavidine-XL. Therefore, the fluorescence emissions at 620 nm and 665 nm after excitation at 350 nm was measured in a HTRF reader, e.g. a Rubystar (BMG Labtechnologies, Offenburg, Germany) or a Viewlux (Perkin-Elmer). The ratio of the emissions at 665 nm and at […] was taken as the measure for the amount of phosphorylated substrate. The data were normalised (enzyme reaction without inhibitor=0% inhibition, all other assay components but no enzyme=100% inhibition).
A general note: In TR-FRET formats the signal depends on donor and acceptor labels being close together.

Structures are written as SMILES. pIC50: −log10 of the molar value. Read-outs that look alike come from different tables or passages of the source.

T1 sequence (P50750 whole entry): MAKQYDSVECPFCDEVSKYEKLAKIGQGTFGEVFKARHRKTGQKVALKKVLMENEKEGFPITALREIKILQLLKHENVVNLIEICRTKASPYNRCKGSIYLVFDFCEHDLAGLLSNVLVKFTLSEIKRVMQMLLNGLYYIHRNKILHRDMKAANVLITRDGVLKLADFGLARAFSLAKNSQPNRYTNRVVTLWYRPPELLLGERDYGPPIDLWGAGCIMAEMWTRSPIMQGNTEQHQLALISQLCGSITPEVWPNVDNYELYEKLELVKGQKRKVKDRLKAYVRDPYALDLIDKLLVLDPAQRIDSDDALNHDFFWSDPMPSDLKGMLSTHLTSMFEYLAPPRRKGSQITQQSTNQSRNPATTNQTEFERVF
T1 sequence (O60563 whole entry partner): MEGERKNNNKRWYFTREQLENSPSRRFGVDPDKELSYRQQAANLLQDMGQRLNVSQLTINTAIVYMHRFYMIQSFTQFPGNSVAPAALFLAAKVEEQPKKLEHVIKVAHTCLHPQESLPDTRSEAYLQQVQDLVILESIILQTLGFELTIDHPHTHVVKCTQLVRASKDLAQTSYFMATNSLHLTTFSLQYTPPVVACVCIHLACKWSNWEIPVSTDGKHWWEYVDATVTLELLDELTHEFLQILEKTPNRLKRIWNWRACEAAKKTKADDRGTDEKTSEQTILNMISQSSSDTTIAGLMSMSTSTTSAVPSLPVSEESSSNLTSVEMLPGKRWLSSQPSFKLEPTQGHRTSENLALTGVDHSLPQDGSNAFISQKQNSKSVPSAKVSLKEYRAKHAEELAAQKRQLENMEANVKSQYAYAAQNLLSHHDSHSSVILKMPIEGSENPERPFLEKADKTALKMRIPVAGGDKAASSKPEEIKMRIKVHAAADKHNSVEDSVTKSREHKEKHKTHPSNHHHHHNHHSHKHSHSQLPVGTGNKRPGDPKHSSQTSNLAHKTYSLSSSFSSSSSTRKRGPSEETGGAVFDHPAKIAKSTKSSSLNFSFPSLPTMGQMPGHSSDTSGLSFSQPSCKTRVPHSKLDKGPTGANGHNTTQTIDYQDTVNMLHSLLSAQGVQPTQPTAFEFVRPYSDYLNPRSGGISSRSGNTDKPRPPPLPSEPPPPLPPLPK

With `CS(=O)(Cc1cc(F)cc(Nc2ncc(F)c(-c3ccc(F)c4ccoc34)n2)c1)=NC#N` (single isomer, unassigned) [Example 9, [(3-Fluoro-5-{[5-fluoro-4-(4-fluoro-1-benzofuran-7-yl)pyrimidin-2-yl]amino}benzyl)(methyl)-oxido-λ^6-sulfanylidene]cyanamide], the pIC50 with HeLa cells is 7.51. In addition, on CDK9/CycT1, the pIC50 was 8.47 and the “Selectivity high ATP CDK9 over high ATP CDK2: IC50 (high ATP CDK2)/IC50 (high ATP CDK9)” value (“Selectivity high ATP CDK9” below) came out at 656.

Consider `CS(=N)(=O)Cc1cc(F)cc(Nc2ncc(F)c(-c3ccc(F)c4ccoc34)n2)c1` (single isomer, unassigned) [Example 11, 5-Fluoro-4-(4-fluoro-1-benzofuran-7-yl)-N-{3-fluoro-5-[(S-methylsulfonimidoyl)-methyl]-phenyl}-pyrimidin-2-amine], for which the pIC50 in the experiment with HeLa cells (Homo sapiens, 96 h) was 7.51. Moreover, on CDK9/CycT1, the pIC50 is 8.43 and the “Selectivity high ATP CDK9” value is on record as 247.

For the molecule `CS(=N)(=O)Cc1cc(F)cc(Nc2ncc(F)c(-c3ccc(F)c4ccoc34)n2)c1` (single isomer, unassigned) [Example 12, 5-Fluoro-4-(4-fluoro-1-benzofuran-7-yl)-N-{3-fluoro-5-[(S-methylsulfonimidoyl)-methyl]-phenyl}-pyrimidin-2-amine], the pIC50 in the experiment on HeLa cells is 7.52. At CDK9/CycT1, the pIC50 was 9.00 and the “Selectivity high ATP CDK9” value was 1263.

As to `Cc1cc(CS(C)(=O)=NC#N)cc(Nc2ncc(F)c(-c3ccc(F)c4ccoc34)n2)c1` (single isomer, unassigned) [Example 14, [(3-{[5-Fluoro-4-(4-fluoro-1-benzofuran-7-yl)pyrimidin-2-yl]amino}-5-methylbenzyl)-(methyl)oxido-λ^6-sulfanylidene]cyanamide], in the experiment on HeLa cells (Homo sapiens, 96 h), the pIC50 is 7.02. Further, at CDK9/CycT1, the pIC50 was 8.66 and the “Selectivity high ATP CDK9” value was determined as 385.

On to `Cc1cc(CS(C)(=O)=NC#N)cc(Nc2ncc(F)c(-c3ccc(F)c4ccoc34)n2)c1` (single isomer, unassigned) [Example 15, [(3-{[5-Fluoro-4-(4-fluoro-1-benzofuran-7-yl)pyrimidin-2-yl]amino}-5-methylbenzyl)-(methyl)oxido-λ^6-sulfanylidene]cyanamide], for which the pIC50 in the experiment with HeLa cells is 6.97. Besides, at CDK9/CycT1, the pIC50 is 8.80 and the “Selectivity high ATP CDK9” value stood at 522.
